# Source: patent publication US7687465B2, “Therapeutic cancer vaccine” (Kraeftens Bekaempelse, priority 2003, dated 2010)
# How the values were obtained:
# [1] = molecular target: T1, HLA-A2 (Homo sapiens, UniProt P04439, D140Y/D185E/D98H/E176V/E277Q/G131W/G231S/I119V/I121R/I166T/I218V/L300P/L318F/N151K/N90K/P208A/P217A/Q86G/Q94H/R138H/R169H/T345S); assay: Assembly assay for peptide binding to class I MHC molecules; conditions: concentration of the peptide required for half maximal binding to HLA-A2; for EC50: read-out: C50
# T1 construct: stabilization of the class 1 molecule after loading of peptide to the peptide transporter deficient cell line T2; endogenous in cells; host or cells: T2 (TAP-deficient human cell line), metabolically labelled with [35S]-methionine and lysed
# Protocol: Assembly assays for binding of the synthetic peptides to class I MHC molecules metabolically labeled with [^35S]-methionine can be carried out as described below. It will be appreciated by the person skilled in the art that the protocol may be adopted for any peptide and any class I MHC molecule.
# Briefly, TAP deficient cells were metabolically labeled with [^35S]-methionine (Amersham, Freiburg, Germany). The cells were lyzed in 0.5 ml lysis buffer (150 mM NaCl, 50 mM TrisHCl, 0.5% NP-40 (Fluka, Buchs, Switzerland), 5 mM EDTA, pH 7.5) with 0.5% Mega-9 (Sigma, St. Louis, USA) in the presence of protease inhibitors (2 mM PMSF, 5 mM iodoacetamide, 2 μg/ml pepstatin, 2 μg/ml leupeptin) with or without synthetic peptide (for a list of positive control peptides, see Table 2).
# After 20 min of incubation, the cell nuclei were removed by centrifugation (5 min, 10,000 g) and 50 μl (10% v/v) freshly washed Staphylococcus aureus organisms (Pansorbin, Calbiochem, Nottingham, UK). The next day Pansorbin was removed by centrifugation (12 min, 16,000 g) and the appropriate monoclonal antibody was added at a final concentration of 10 μg/ml, incubated for 90 min, followed by addition of protein A-Sepharose (75 μl, 10% v/v) and incubation for 1 h. The beads were washed 4 times and stored at −20° C. until analysis by electrophoresis.
# In the case of an assembly assay with the HLA class I-specific conformation-dependent monoclonal antibody W6/32, samples were eluted in reducing buffer (9.5 M urea, 2% NP-40, 5% 2-mercaptoethanol, 2% Ampholines, pH range 3.5-9.5 (Pharmacia Biotech, Uppsala, Sweden)) and focused for 16 h at 880 V on 5.5% polyacrylamide isoelectric focusing (IEF) gels^20,39.
# Samples from assembly assays with allele-specific antibodies were eluted by boiling (5 min) in SDS reducing buffer (50 mM TrisHCl pH 6.8, 2% SDS, 5% 2-mercaptoethanol, 10% glycerol, 2.5% bromophenol blue) and electrophorezed on 12% SDS-PAGE gels (1 h at 200 V). All gels were fixed in 10% acetic acid with 5% methanol and dried onto 3 MM paper (Whatman, Maidstone, UK). MHC heavy chain bands were quantified using the Imagequant Phosphorimager program (Molecular Dynamics, Sunnyvale, Calif., USA). The intensity of the band is directly related to the amount of peptide-bound class I MHC complex recovered during the assay. C50 value (μM) as the concentration of the peptide required for half maximal binding to MHC may thus be determined. The binding affinities of the analysed peptides are determined according to their efficiency of stabilising the HLA class I molecules. The binding affinity is represented as the peptide concentration required to reach half-maximal stabilistation of appropriate HLA-molecule.
# Assembly assays for binding of the synthetic peptides to class I MHC molecules metabolically labeled with [^35S]-methionine were carried out as described^15,16. The assembly assay is based on stabilization of the class 1 molecule after loading of peptide to the peptide transporter deficient cell line T2. Subsequently correctly folded stable MHC heavy chains are immunoprecipitated using conformation-dependent antibodies. After IEF electrophoresis, gels were exposed to phosphorImager screens, and peptide binding was quantitated using the Imagequant PhosphorImager program (Molecular Dynamics, Sunnyvale, Calif.).
# [2] = system: peripheral blood T cells or TIL from melanoma patients; assay: ELISPOT IFN-γ secretion assay, T-cell responses against HLA-A2 binding ML-IAP peptides; assay type: cell-based, human; conditions: for strength of spontaneous CTL response: TIL and PBL from melanoma patients, in words; for TIL samples in which a response against the peptide was detected: TIL from melanoma patients (n=22); for TIL samples in which a response against the peptide was detected / PBL samples in which a response against the peptide was detected: stimulated once in vitro with peptide, number of samples; for PBL samples in which a response against the peptide was detected: peripheral blood T cells from melanoma patients (n=7)
# Protocol: Peripheral blood was obtained from melanoma patients before vaccination and subsequent to a series of vaccinations. In order to identify peptide-specific T-cell precursors, peripheral blood lymphocytes (PBL) were used directly in the ELISPOT (designated direct ELISPOT). However, to extend the sensitivity of the ELISPOT assay, PBL were stimulated once in vitro prior to analysis^17,18. At day 0, PBL or crushed lymph nodes were thawed and plated in 2 ml/well at a concentration of 2×10^6 cells in 24-well plates (Nunc, Denmark) in X-vivo medium (Bio Whittaker, Walkersville, Md.), 5% heat-inactivated human serum, and 2 mM of L-glutamine in the presence of 10 μM of peptide. Two days later 20 IU/ml recombinant interleukin-2 (IL-2) (Chiron, Ratingen, Germany) was added to the cultures. The cultured cells were tested for reactivity in the ELISPOT on day 8.
# The ELISPOT assay used to quantify peptide epitope specific interferon-7 releasing effector cells was adapted from Lalvani et al.^37, and Scheibenbogen et al.^38. Briefly, nitrocellulose bottomed 96-well plates (MultiScreen MAIP N45, Millipore) were coated overnight at 4° C. with 7.5 μg/ml of anti-IFN-γ antibody (1-D1K, Mabtech, Sweden) in 75 μl sterile PBS. Subsequently, the wells were washed six times with PBS, and non-specific binding were blocked by X-vivo medium for 2 hours at 37° C. Freshly isolated PBL or cells, which had been stimulated once in vitro, were added in duplicates at different cell concentrations (from 10^6 to 10^5 cells per well for non-stimulated PBL, and from 3×10^5-3×10^4 cells per well for PBL which had been stimulated once in vitro), in 100 μl X-vivo medium. Peptides were then added to each well to a final concentration of 2 μM and incubated overnight at 37° C.
# The following day, media was discarded and the wells were washed (six times) with PBS containing 0.05% Tween (PBS/Tw) before the addition of biotinylated secondary antibody (7-B6-1-Biotin, Mabtech) at 0.5 μg/ml in 75 μl PBS containing 1% BSA and 0.02% NaN3 (PBS/BSA). The plates were incubated at room temperature for 2 hours. The wells were washed (six times) with PBS/Tw. Then 75 μl of Avidin-enzyme conjugate (AP-Avidin, Calbiochem) diluted 1:2000 in PBS/BSA were added to each well and incubated for 1 hour. The enzyme substrate NBT/BCIP was prepared freshly according to the manufacturers' instructions (Gibco, code 18280-016) and 75 μl were added to each well and incubated for 5-10 min. The reaction was terminated by washing with tap-water upon the emergence of dark purple spots. The spots were then counted using the AlphaImager System (Alpha Innotech, San Leandro, Calif., USA) and the peptide specific CTL frequency could be calculated as the number of spot-forming cells.
# (§1) To extend the sensitivity of the ELISPOT assay, PBL were stimulated once in vitro prior to analysis^17,18. At day 0, PBL or crushed lymph nodes were thawed and plated in 2 ml/well at a concentration of 2×10^6 cells in 24-well plates (Nunc, Denmark) in X-vivo medium (Bio Whittaker, Walkersville, Md.), 5% heat-inactivated human serum, and 2 mM of L-glutamine in the presence of 10 μM of peptide. Two days later 20 IU/ml recombinant interleukin-2 (IL-2) (Chiron, Ratingen, Germany) was added to the cultures. The cultured cells were tested for reactivity in the ELISPOT on day 12.
# The ELISPOT assay used to quantify peptide epitope-specific interferon-γ-releasing effector cells was performed as described previously^19. Briefly, nitrocellulose bottomed 96-well plates (MultiScreen MAIP N45, Millipore, Hedehusene, Denmark) were coated with anti-IFN-7 antibody (1-D1K, Mabtech, Nacka, Sweden). The wells were washed, blocked by X-vivo medium, and cells were added in duplicates at different cell concentrations. Peptides were then added to each well and the plates were incubated overnight. The following day, media was discarded and the wells were washed prior to addition of biotinylated secondary antibody (7-B6-1-Biotin, Mabtech). […]
# [3] = system: PBL from HLA-A3 antigen positive melanoma patients; assay: ELISPOT in PBL from HLA-A3 antigen positive melanoma patients; assay type: cell-based, human
# Protocol: T-cell response against the ML-IAP245-253 ([…]) peptide as measured in an ELISPOT in PBL from 14 melanoma patients. T-lymphocytes were stimulated once with peptide before plated in triplicates either without or with peptide. The average number of peptide specific cells (after subtraction of spots without added peptide) was calculated for each patient as the number of spot forming cells per 10^5 CD8 positive cells after subtraction of the number of background spots formed without addition of peptide using the ImmunoSpot® Series 2.0 Analyzer (CTL Analyzers, LLC, Cleveland, US).
# as §1, with “Two days later 20 IU/ml recombinant interleukin-2 (IL-2) (Chiron, Ratingen, Germany) was added to the cultures. The cultured cells were tested for reactivity in the ELISPOT on day 12.” left out
# The ELISPOT assay used to quantify peptide epitope-specific interferon-γ-releasing effector cells was performed as described previously^19. […] The spots were counted using the AlphaImager System (Alpha Innotech, San Leandro, Calif. USA) and the peptide specific CTL frequency could be calculated from the numbers of spot-forming cells. […]
EC50 [1],Compound,strength of spontaneous CTL response [2],TIL samples in which a response against the peptide was detected [2],PBL samples in which a response against the peptide was detected [2],C50 (μM) [1],peptide specific T-cells per 10^5 CD8+ cells ([3]; in the five responding patients),"patients hosting an immune response against the peptide ([3]; of 14 HLA-A3 antigen positive melanoma patients, response of more than 200 specific T-cells per 10^5 CD8+ cells)"
200 nM,CC(C)C[C@H](NC(=O)[C@@H]1CCCN1C(=O)[C@H](Cc1c[nH]c2ccccc12)NC(=O)[C@H](CC(=O)O)NC(=O)[C@H](Cc1ccc(O)cc1)NC(=O)[C@H](Cc1ccccc1)NC(=O)[C@H](CO)NC(=O)[C@H](C)NC(=O)[C@H](CC(C)C)NC(=O)[C@@H](N)CCCNC(=N)N)C(=O)O [ML-IAP90],Weaker spontaneous responses,seven,two,,,
> 100000 nM,CC(C)C[C@H](NC(=O)[C@@H](N)C(C)C)C(=O)N[C@@H](CCC(=O)O)C(=O)N1CCC[C@H]1C(=O)N1CCC[C@H]1C(=O)NCC(=O)N[C@@H](C)C(=O)N[C@@H](CCCNC(=N)N)C(=O)N[C@@H](CC(=O)O)C(=O)N[C@H](C(=O)O)C(C)C [ML-IAP230],Weaker spontaneous responses,six,two,not able to stabilize the HLA-A2 molecule,,
,RLQEERTCK (listed as Homo sapiens) [mL-IAP245-253],,,,,more than 200 per 10^5 CD8+ cells,five
